Measurements: patent US20250049770A1, “Phosphodiesterase 4 Inhibitor Decreases Thrombosis in Simulated ECMO Model” (Board of Regents, The University of Texas System, priority 2023, published 2025)

Key:
[1] = system: leukocytes; assay: Leukocyte activation measured by TNF-alpha in roller pump ECMO circuit (Trial 1); format: cell-based, human; conditions: nominal flow rate (0.5 L/min), six hours; heparin with Roflumilast
From the text: (§1) Whole blood was collected from healthy adults under an U.S. Army Institute of Surgical Research approved standard operating procedure. A simulated neonatal roller pump with a KIDS D100 oxygenator circulated human whole blood at a low or nominal flow rate ([…] and 0.5 L/min) for six hours or until clot formation caused device failure. Samples were collected hourly from the ECMO model that received heparin alone or heparin plus roflumilast (a PDE4 inhibitor). Expression of pro-thrombotic proteins on leukocytes and extracellular vesicles (EV) were measured with high-resolution flow cytometry. Coagulation factor activity, platelet counts, time to thrombin generation, peak thrombin, and endogenous thrombin potential were quantified. Whole blood was collected from healthy adult humans into a blood transfer bag containing 0.5 U/mL of heparin with or without roflumilast at 0.01 microgram per mL, under an approved protocol by the U.S. Army Institute of Surgical Research. The blood was then circulated through a roller pump circuit for six hours or until clot formation occurred that prevented forward flow through the circuit. As a control, an aliquot of static blood was removed after priming the circuit and maintained in a similar test environment without circuitry.

[2] = system: human whole blood; assay: Clot formation (d-dimer) and plasminogen activating inhibitor in simulated Cardiohelp HTS in vitro ECMO system (Trial 2); conditions: after five hours of circulation, low flow rate (1 L/min); for clot formation as measured by d-dimer: heparin with or without roflumilast, p<0.04
From the text: (§2) Whole blood was collected from healthy adults under an US Army Institution of Surgeryal Review Board approved protocol. A simulated Cardiohelp HTS in vitro ECMO system with a double-lumen veno-venous catheter circulated human whole blood at a low flow rate (1 L/min) for six hours or until clot formation caused device failure. Samples were collected hourly from the ECMO model that received heparin alone or heparin plus roflumilast (a PDE4 inhibitor). Expression of pro-thrombotic proteins on leukocytes and extracellular vesicles (EV) were measured with high-resolution flow cytometry. Coagulation factor activity, platelet counts, time to thrombin generation, peak thrombin, and endogenous thrombin potential were quantified.

[3] = system: human whole blood; assay: Circuit patency / clot formation in simulated neonatal roller pump ECMO circuit (Trial 1); conditions: for circuits with sustained patency after six hours: heparin 0.5 U/mL with or without roflumilast, 3/4 vs 2/7 circuits
From the text: (§3) Whole blood was collected from healthy adults under an U.S. Army Institute of Surgical Research approved standard operating procedure. A simulated neonatal roller pump with a KIDS D100 oxygenator circulated human whole blood at a low or nominal flow rate ([…] and 0.5 L/min) for six hours or until clot formation caused device failure. Samples were collected hourly from the ECMO model that received heparin alone or heparin plus roflumilast (a PDE4 inhibitor). Expression of pro-thrombotic proteins on leukocytes and extracellular vesicles (EV) were measured with high-resolution flow cytometry. Coagulation factor activity, platelet counts, time to thrombin generation, peak thrombin, and endogenous thrombin potential were quantified.
(§4) Whole blood was collected from healthy adult humans into a blood transfer bag containing 0.5 U/mL of heparin with or without roflumilast at 0.01 microgram per mL, under an approved protocol by the U.S. Army Institute of Surgical Research. The blood was then circulated through a roller pump circuit for six hours or until clot formation occurred that prevented forward flow through the circuit. As a control, an aliquot of static blood was removed after priming the circuit and maintained in a similar test environment without circuitry.
(§5) Samples were collected hourly from the roller pump circuit, which circulated blood treated with either heparin only or heparin plus roflumilast, at nominal flow rates (0.5 L/min). The expression of pro-thrombotic phospholipids and proteins on platelets, leukocytes, and extracellular vesicles (EV) was measured using high-resolution flow cytometry. Additionally, thromboelastography (TEG) and coagulation indices were used to assess coagulopathy, and a calibrated automated thrombogram was employed to measure differences in whole blood TEG between the roflumilast-treated and heparin-only samples.

[4] = system: human whole blood; assay: Thromboinflammation markers in simulated Cardiohelp HTS in vitro ECMO system (Trial 2); format: cell-based; conditions: roflumilast added to heparin vs heparin alone; preliminary results
From the text: as §2

[5] = system: platelets, leukocytes, and extracellular vesicles (EV); assay: High-resolution flow cytometry of pro-thrombotic proteins in roller pump ECMO circuit (Trial 1); format: cell-based, human
From the text: as §1, with “circuitry. Samples were collected hourly from the roller pump circuit, which circulated blood treated with either heparin only or heparin plus roflumilast, at nominal flow rates (0.5 L/min). The expression of pro-thrombotic phospholipids and proteins on platelets, leukocytes, and extracellular vesicles (EV) was measured using high-resolution flow cytometry. Additionally, thromboelastography (TEG) and coagulation indices were used to assess coagulopathy, and a calibrated automated thrombogram was employed to measure differences in whole blood TEG between the roflumilast-treated and heparin-only samples.” for “circuitry.”

[6] = system: monocyte; conditions: cell culture experiments; cited from earlier work
[7] = system: neutrophils and monocytes; conditions: Totani et al (J. Thromb Haemost. 2016); cited from earlier work
[8] = system: thrombin generation; assay: Thrombin generation (calibrated automated thrombogram) in roller pump ECMO circuit (Trial 1); design: species or system human; conditions: for time to thrombin generation: at the 3-hour time point, p<0.04; for time to thrombin generation / peak thrombin generation: heparin with or without roflumilast; for peak thrombin generation: p<0.02
From the text: as §3, §4, §5

[9] = in vitro ECMO experiments with roflumilast

| Compound | leukocyte activation as measured by TNF-alpha [1] | clot formation as measured by d-dimer [2] [µg/mL] | increase in plasminogen activating inhibitor levels, more than heparin alone ([2]; roflumilast added to heparin, p<0.03) [fold] | circuits with sustained patency after six hours [3] [%] | clot formation (in vitro ECMO experiments, summary) [3, 9] | monocyte activation (thromboinflammation) [4] | myeloperoxidase (thromboinflammation) [4] | p-selectin (thromboinflammation) [4] | Monocytes expression of tissue factor ([5]; low flow (0.3 L/min) vs low flow with Roflumilast, p<0.05) | P-selection expression ([5]; low flow (0.3 L/min) with Roflumilast vs nominal and low flow, over six hours, p<0.05) | extracellular leukocytes expressing tissue factor ([5]; roller pump circuit, heparin plus roflumilast) | monocyte activation of tissue factor [6] | pro-thrombotic functions of neutrophils and monocytes [7] | time to thrombin generation [8] [min] | peak thrombin generation [8] [nm] | thrombin generation (in vitro ECMO experiments, summary) [8, 9] | Peak thrombin (comparison in words) ([8]; nominal flow rate (0.5 L/min), six hours, heparin only vs leukodepleted or roflumilast and heparin, p<0.05) | lag time (thrombin generation) ([8]; over six hours of circulation, heparin vs heparin with Roflumilast) |
| --- | --- | --- | --- | --- | --- | --- | --- | --- | --- | --- | --- | --- | --- | --- | --- | --- | --- | --- |
| O=C(Nc1c(Cl)cncc1Cl)c1ccc(OC(F)F)c(OCC2CC2)c1 [roflumilast] | inhibited leukocyte activation | 0.30 ± 0.06 | 1.6 | 75 | decreased | less | less | less | increased more at low flow than circuits treated with | significantly inhibited | decreased | decreases | prevents | 13.9 | 69 | decreased | increased significantly more in heparin only | decreased lag time over six hours of circulation less than roflumilast treated circuits |
| heparin |  | 0.49 ± 0.08 |  | 28 |  |  |  |  |  |  |  |  |  | 6.8 | 207 |  |  |  |
